Where two headings read alike, the source gives them in different places.
What was measured:
[1] = system: rats with acute cerebral ischemia-reperfusion; experiment: Blood viscosity of rats with acute cerebral ischemia-reperfusion (blood viscometer); format: in vivo, SD rats; set-up: unit not given here; conditions: 4 mg/kg iv 2 h after reperfusion; blood 4 h after administration; n=5
Protocol: (§1) Trial method: Effects on inflammatory factors and blood viscosity of rats with acute cerebral ischemia-reperfusion: 70 Male SD rats underwent an MACO surgery by a suture method, and after the surgery, alive rats were randomly grouped (into 7 groups, the number of successful animals in each group was guaranteed to be 6 to 8). Blood perfusion was recovered 2 h after MCAO, and corresponding trial medicaments were intravenously injected 2 h after blood reperfusion. 4 hours after the administration, blood was collected and the rats were sacrificed to take out brain tissues. The brain tissues and part of the blood were centrifuged to collect serum which was detected for inflammatory factors, and part of the blood was detected for blood viscosity by using a blood viscometer. Detected indicators: cerebral infarction area; inflammatory factors IL-1β and TNF-α; and blood viscosity.
Table 2 lists results of effects of phenylpropionate compounds (4 mg/kg) on blood viscosity of rats (n=5).

[2] = system: SD rats; experiment: Acute toxicity, single-dose intravenous injection in SD rats; format: in vivo; conditions: for tolerance: single-dose intravenous injection (5, 10, 20 mg/kg); for toxic side effects: single-dose intravenous injection up to 20 mg/kg, observed to day 8
Source text: In this example, Compound A and Compound C were studied for acute toxicity by a method described below.
Trial method: 30 SD rats, half male and half female, were used. The average weight was 160-200 g for female rats and 180-220 g for male rats when grouped. An individual weight should be within ±20% of the average weight. Before trial, animals were accommodated environment for at least 5 days, and healthy rats (female rats should be not pregnant) were selected as trial animals. Matter inspected during the accommodation period mainly was: whether the rats were consistent with quality indicators required in the order; inspection of general condition; and whether the weight was within the weight range required by the trial. Unqualified abnormal animals were excluded from the trial. A single dosage was injected through tail veins of rats at low, medium, or high dose. The doses were adjusted to be 5 mg/kg, 10 mg/kg, and 20 mg/kg, respectively according to blank preparation pre-trials. A control group was set in which a same volume of vehicle was intravenously injected.
The rats were observed about 0-2 h and 4-6 h after each administration. If a toxicity symptom occurs, the animal may be observed more times. (2) Gross anatomical observation: On the 8th day of the trial, all surviving rats in each group were dissected and observed, and administration sites and abnormal organs and tissues which were identified through gross anatomical observation to be potentially related to trial samples were photographed and recorded. (3) Disposal of dying animals: Status of rats and observation time were recorded, and their weights were measured. (4) Disposal of dead animals: The time of death or when a rat was found dead were recorded. The rat was measured for weight before quickly dissected for gross observation and speculated for cause of death.

[3] = system: IL-1β; experiment: Inflammatory factor IL-1β in blood and brain tissues of rats with acute cerebral ischemia-reperfusion; format: in vivo, SD rats; conditions: 4 mg/kg iv 2 h after reperfusion; 4 h after administration; n=5
Protocol: as §1
(§2) Table 3 lists results of effects of phenylpropionate compounds (4 mg/kg) on inflammatory factors in blood and brain tissues of rats (n=5).

[4] = system: platelet aggregation induced with ADP; experiment: Maximum platelet aggregation rate of rabbits, induced with ADP; format: cell-based; conditions: rabbit plasma, 4 mg/kg as printed, n=3; for inhibition at 4 mg/kg: Oryctolagus cuniculus, Platelet
Protocol: (§3) Effects on maximum platelet aggregation rate of rabbits: 3 Rabbits were anesthetized, and blood was collected from the heart to obtain 14 parts of plasma for each rabbit (1 ml per part of plasma). 7 Parts were induced with ADP to allow platelet aggregation, and 7 parts were induced with a platelet activating factor. After the induction, a solvent, positive control drug aspirin, and 5 samples to be trialed were separately added to the plasma, and maximum platelet aggregation rate was detected with a platelet aggregation meter. The trials were repeated 3 times, and an average was taken. Detected indicator: maximum platelet aggregation rate.
(§4) Table 4 lists results of effects of phenylpropionate compounds (4 mg/kg) on platelet aggregation rate of rabbits (n=3).

[5] = system: rats with acute cerebral ischemia-reperfusion; experiment: Cerebral infarction area of rats with acute cerebral ischemia-reperfusion (MCAO, suture method); format: in vivo, SD rats; set-up: Cerebral Infarction Area: unit not given here; conditions: n=5; for Cerebral Infarction Area: 4 mg/kg iv 2 h after reperfusion (2 h MCAO), sampled 4 h after administration; for inhibition in vivo at 4 mg/kg: Rattus norvegicus, 4 h, 4 mg/kg iv 2 h after reperfusion, vs solvent control, read-out: Percentage of Cerebral Infarction Area Reduction
Protocol: as §1
Table 1 lists results of effects of phenylpropionate compounds (4 mg/kg) on cerebral infarction area of rats with acute cerebral ischemia (n=5).

[6] = Distribution in brain: plasma and intracerebral concentrations after intravenous injection; format: in vivo; conditions: both sexes, rat, rats, 4 mg/kg iv; for Kp at 10 min / Kp at 60 min / Kp at 180 min: brain/plasma, read-out: Brain/Blood Concentration Ratio
Protocol: In this example, Compounds A to E, D-bornyl ferulate, and D-tanshinol borneol ester were measured for distribution in brain. Structures of D-bornyl ferulate (Patent Application No.: 201510243181.5) and D-tanshinol borneol ester compounds are as follows:
Method for testing distribution in brain: 42 rats with a weight range of 200±20 g were taken. The rats were randomly divided into 7 groups, with 6 rats per group, half male and half female. Rats were fasted with free access to water for 12 h and then intravenously injected with 4 mg/kg of a compound. Rats in the 3 groups were sacrificed through femoral artery bleeding and collected for blood 10 min, 60 min, 180 min after administration, respectively. Brains were taken out, 0.2 g was weighted, and 1 mL of pure water was added for homogenizing. The blood samples and brain homogenate samples were stored at −20° C.
Distribution of Compounds A to E, and D-bornyl ferulate and D-tanshinol borneol ester compounds in brain: Data on concentrations of Compounds A to E, D-bornyl ferulate, and D-tanshinol borneol ester in plasma and intracerebral in rats intravenously injected with 4 mg/kg of Compounds A to E, D-bornyl ferulate, and D-tanshinol borneol ester are listed in Table 9.

[7] = system: TNF-α; experiment: Inflammatory factor TNF-α in blood and brain tissues of rats with acute cerebral ischemia-reperfusion; format: in vivo, SD rats; conditions: 4 mg/kg iv 2 h after reperfusion; 4 h after administration; n=5
Protocol: as §1, §2

[8] = system: platelet aggregation induced with a platelet activating factor; experiment: Maximum platelet aggregation rate of rabbits, induced with PAF; format: cell-based; conditions: rabbit plasma, 4 mg/kg as printed; for inhibition at 4 mg/kg: Oryctolagus cuniculus, Platelet, n=3, read-out: Inhibiton rate on Aggregation; for Maximum Aggregation Rate: n=3
Protocol: as §3, §4

[9] = brain, read-out: Mean Intracerebral Concentration
[10] = plasma, read-out: Mean Plasma Concentration

SMILES | Blood viscosity, High Shear [1] | Blood viscosity, Low Shear [1] | tolerance [2] [mg/kg] | toxic side effects [2] | IL-1β [3] [ng/L] | inhibition at 4 mg/kg [4] [%] | Maximum Aggregation Rate [4] [%] | Cerebral Infarction Area [5] | inhibition in vivo at 4 mg/kg [5] [%] | Kp at 10 min [6] | Kp at 60 min [6] | Kp at 180 min [6] | concentration at 10 min [6, 9] [ng/g] | concentration at 60 min [6, 9] [ng/g] | concentration at 180 min [6, 9] [ng/g] | concentration at 10 min [6, 10] [ng/mL] | concentration at 60 min [6, 10] [ng/mL] | concentration at 180 min [6, 10] [ng/mL] | TNF-α [7] [ng/L] | inhibition at 4 mg/kg [8] [%] | other results
COc1cc(CCC(=O)O[C@H]2C[C@H]3CC[C@]2(C)C3(C)C)cc(F)c1O [Compound A] | 2.56 ± 0.057 | 13.2 ± 0.535 | 20 | no obvious toxic side effects | 53.8 ± 6.4 | 52.3 | 15.7 ± 6.31 | 18.6 ± 2.65 | 49.3 | 2.6 | 5.7 | 3.2 | 2640 ± 517 | 1420 ± 309 | 311 ± 115 | 1020 ± 192 | 252 ± 76.5 | 97.3 ± 22.7 | 615 ± 42.9 | 60.2 | Maximum Aggregation Rate [8]: 28.4 ± 6.4 %
COc1cc(CCC(=O)O[C@H]2C[C@H]3CC[C@]2(C)C3(C)C)cc(OC)c1O [Compound C] | 2.70 ± 0.982 | 13.9 ± 1.014 | 20 | no obvious toxic side effects | 59.3 ± 8.7 | 56.5 | 14.3 ± 5.64 | 19.6 ± 5.38 | 46.6 | 2.9 | 11 | 2 | 2630 ± 167 | 1870 ± 406 | 188 ± 51.9 | 906 ± 145 | 160 ± 49.1 | 92.2 ± 35.5 | 634 ± 25.1 | 52.9 | Maximum Aggregation Rate [8]: 33.6 ± 7.9 %

Source: US11767286B2, “Phenylpropionate compound, preparation method for same, and applications thereof” (SUZHOU PHARMAVAN CO., LTD, priority 2017, dated 2023)
